Source: patent publication US20230322822A1, “ARYL PHOSPHOROUS OXIDE COMPOUNDS AND USE THEREOF” (Chengdu Di'ao Jiuhong Pharmaceutical Factory, priority 2020, published 2023)
Like-named read-outs stand apart in the source and are kept apart here.

Assays:
[1] = Pharmacokinetic test in SD rats; assay type: in vivo; details: male, Sprague-Dawley, rat, plasma, PO, 20 mg/kg
Description: Six SD rats were taken, which were all male, and about 8-9 weeks old, weighing about 430 g/rat, and fasting but allowed to drink water for 18 hours.
The rats were divided into two groups, wherein the rats in group 1 were dosed with compound 2 and the rats in group 2 were dosed with control compound 4, both orally and intragastrically in a dose of 20 mg/kg. A lavage fluid was prepared using 70 mM citric acid buffer (pH 3.0) at an administration volume of 5 mL/kg.
0.6 mL of blood (EDTA-2K anti-coagulated) was collected from rat orbits at 0.5, 1.5, 3, 4.5, 8, 12, 24, 36, 48 and 72 hours after the administration respectively. The plasma was separated and stored at −70° C., and the plasma samples were analyzed using liquid chromatography tandem mass spectrometry (LC-MS/MS). The plasma concentration-time data of the individual rates was analyzed using a non-compartmental model of DAS3.3.1 software and pharmacokinetic parameters of the test compounds were calculated.

[2] = test system: BaF3 EML-4-ALK-L1196M cell line; assay: Cell anti-proliferation test 4 (CCK-8), BaF3 EML-4-ALK-L1196M; assay type: cell-based; details: Ba/F3 EML4-ALK-L1196M, BaF3 EML-4-ALK-L1196M cells, CCK-8, 72 hours
Description: BaF3 EML-4-ALK-L1196M cell line, brand: KYinno, article number: KC-0102
Cell Counting Kit-8 (CCK-8), brand: Targetmol, article number: C0005
10 μL of the compound diluted in gradient was added to the cell plate to give final concentrations of the compounds as 500, 166.67, 55.56, 18.52, 6.17, 2.06, 0.69, 0.23 and 0.08 nM. • d.

- AUC(0-t) [1]: 58500 ng·h/mL
- Cmax [1]: 1420 ng/mL
- IC50 ([2]; first test, read-out: First test IC50): 81.5 nM
- IC50 ([2]; second test, read-out: Second test IC50): 74.6 nM
Compound: CCc1cc(Nc2ncc(Br)c(Nc3ccc(C4CC4)cc3P(C)(C)=O)n2)c(OC)cc1N1CCC(N2CCN(C)CC2)CC1 [Control compound 4, reference compound]
